{"source": "patent US20090220562A1", "about": "“Osteogenic and anti-adipogenic oxysterols” (priority 2005, published 2009)", "assay_type_in_all_cases": "cell-based, mouse", "key": {"[1]": {"test_system": "M2-10B4 marrow stromal cells", "assay": "Alkaline phosphatase (ALP) activity assay on whole cell extracts of M2-10B4 marrow stromal cells", "details": "for induction of alkaline phosphatase activity: 10 μM oxysterol, 3 days, osteogenic medium", "procedure": "(§1) Cells: M2-10B4 mouse marrow stromal cell line obtained from American Type Culture Collection (ATCC, Rockville, Md., U.S.A.) was derived from bone marrow stromal cells of a (C57BL/6J x C3H/HeJ) Fl mouse, and support human and murine myelopoiesis in long-term cultures (as per ATCC) and have the ability to differentiate into osteoblastic and adipocytic cells. Unless specified, these cells were cultured in RPMI 1640 containing 10% heat-inactivated FBS, and supplemented with 1 mM sodium pyruvate, 100 U/ml penicillin, and 100 U/ml streptomycin (all from Irvine Scientific).\nCells were always treated at 90% confluence. […]\nNext, a combination of 22R and 20S oxysterols (RS, 2.5 μM each) were added in the presence or absence of SC as indicated. After 3 days, ALP activity was measured as described earlier. […] (B) M2 cells were treated as described in (A) and after 10 days matrix mineralization in cultures was quantified by a ^45Ca incorporation assay as described earlier. […] (C) M2 cells were pretreated with 20 μM SC for 4 hours, followed by the addition of RS in the presence or absence of SC as described above. After 8 days, total RNA was isolated and analyzed for osteocalcin (Osc) and […] expression by Northern blotting as previously described. Data from densitometric analysis of the Northern blot is shown in (D) as the average of duplicate samples, normalized to 18S rRNA. (E) M2 cells at confluence were pretreated for 2 hours with control vehicle (C), or PLA2 inhibitors ACA (25 μM) and AACOCF3 (AAC, 20 μM), in osteogenic medium. Next, a combination of 22R and 20S oxysterols (RS, 2.5 μM) was added in the presence or absence of the inhibitors as indicated. After 3 days, ALP activity was measured as previously described. […] (F) M2 cells were treated as described in (E). After 10 days, matrix mineralization in cultures was quantified using a ^45Ca incorporation assay as previously described. […]"}, "[2]": {"test_system": "M2-10B4 marrow stromal cells", "assay": "Matrix mineralization (45Ca incorporation assay, von Kossa staining) in M2-10B4 marrow stromal cells", "details": "for induction of mineralization by individual oxysterols: 0.5 to less than 10 μM, as many as 14 days (data not shown)", "procedure": "as §1\n(§2) Von Kossa and oil red O staining—Matrix mineralization in cell monolayers was detected by silver nitrate staining as previously described. Oil red O staining for detection of adipocytes was performed as previously described.\n^45Ca incorporation assay—Matrix mineralization in cell monolayers was quantified using the ^45Ca incorporation assay as previously described.\nAfter 14 days, mineralization was identified by a von Kossa staining, which appears black. FIG. 3C is a depiction of von Kossa staining of M2 cells exposed to various conditions.\nAfter 14 days, matrix mineralization in cultures was quantified using a ^45Ca incorporation assay.\nNext, a combination of 22R and 20S oxysterols (RS, 2.5 μM each) were added in the presence or absence of SC as indicated. After 3 days, ALP activity was measured as described earlier. […] (B) M2 cells were treated as described in (A) and after 10 days matrix mineralization in cultures was quantified by a ^45Ca incorporation assay as described earlier. […] (C) M2 cells were pretreated with 20 μM SC for 4 hours, followed by the addition of RS in the presence or absence of SC as described above. After 8 days, total RNA was isolated and analyzed for osteocalcin (Osc) and […] expression by Northern blotting as previously described. Data from densitometric analysis of the Northern blot is shown in (D) as the average of duplicate samples, normalized to 18S rRNA. (E) M2 cells at confluence were pretreated for 2 hours with control vehicle (C), or PLA2 inhibitors ACA (25 μM) and AACOCF3 (AAC, 20 μM), in osteogenic medium. Next, a combination of 22R and 20S oxysterols (RS, 2.5 μM) was added in the presence or absence of the inhibitors as indicated. After 3 days, ALP activity was measured as previously described. […] (F) M2 cells were treated as described in (E). After 10 days, matrix mineralization in cultures was quantified using a ^45Ca incorporation assay as previously described. Results from a representative of three experiments are shown, reported as the mean of quadruplicate determinations ±SD, normalized to protein concentration (p<0.01 for RS vs. RS+ACA and RS+AAC).\n(A) M2 cells at confluence were pretreated for four hours with RPMI containing 1% FBS, followed by treatment with control vehicle or 5 μM 20S oxysterol for 1, 4, or 8 hours. Next total cell extracts were prepared and analyzed for levels of native or phosphorylated ERK (pERK) using specific antibodies as previously described. Data from a representative of four experiments are shown, each treatment shown in duplicate samples. (B) M2 cells at confluence were pretreated for 2 hours with control vehicle (C) or 20 μM PD98059 (PD) in osteogenic medium as previously described. Next, a combination of 22R and 20S oxysterols (RS, 5 μM each) were added to appropriate wells as indicated. After 10 days of incubation, matrix mineralization was quantified by the ^45Ca incorporation assay as previously described. […] (C) M2 cells at confluence were pretreated for 2 hours with 20 µM PD98059 (PD) in RPMI containing 5% FBS. Next, the cells were treated with control vehicle (C), 10 μM troglitazone (Tro), or 10 μM of 20S or 22S oxysterols, alone or in combination as indicated. After 10 days, adipocytes were visualized by oil Red O staining and quantified by light microscopy as previously described. […]"}, "[3]": {"test_system": "M2 cells", "assay": "Troglitazone-induced adipogenesis in M2 cells (oil Red O staining, adipocyte count)", "details": "Tro 10 μM, oxysterol 10 μM, 10 days, alone or in combination", "procedure": "as §2\nTest 1: M2 cells at 90% confluence were treated with vehicle (C), PPAR-γ activator, troglitazone 10 μM (Tro), alone or in combination with 10 μM oxysterols 20S-, 22R-, or 25S-hydroxycholesterol. After 8 days, adipocytes were identified by oil Red 0 staining and quantified by counting under a phase contrast microscope. FIG. 6A is a bar graph depicting the effect of oxysterols on reducing adipogenesis of MSC.\nTest 2: (A) M2 cells at confluence were treated in RPMI containing 10% FBS with control vehicle or 10 μM troglitazone (Tro) in the absence or presence of 10 μM 20S or 22S-hydroxycholesterol. After 10 days, adipocytes were visualized by oil Red O staining and quantified by light microscopy, shown in (B). […] (C) M2 cells were treated at confluence with 10 μM Tro, alone or in combination with 10 μM 20S oxysterol. After 10 days, total RNA was isolated and analyzed for lipoprotein lipase (LPL), adipocyte P2 gene (aP2) or 18S rRNA expression by Northern blotting as described (Ref). Data from densitometric analysis of the Northern blot is shown in (D) as the average of duplicate samples, normalized to 18S rRNA."}}}
{"smiles": "CC(C)CCC[C@](C)(O)[C@H]1CC[C@H]2[C@@H]3CC=C4C[C@@H](O)CC[C@]4(C)[C@H]3CC[C@@]21C", "note": "[20S-hydroxycholesterol]", "values": [{"measurement": "induction of alkaline phosphatase activity", "setting": "[1]", "result": "induced"}, {"measurement": "alkaline phosphatase (ALP) activity", "setting": "[1]; doses of 5-15 μM", "result": "induction"}, {"measurement": "induction of mineralization by individual oxysterols", "setting": "[2]", "result": "unable to induce"}, {"measurement": "mineralization", "setting": "[2]; doses of 5-15 μM", "result": "induction"}, {"measurement": "effect on troglitazone-induced adipogenesis", "setting": "[3]", "result": "inhibited adipogenesis"}]}
{"smiles": "CC(C)CC[C@@H](O)[C@@H](C)[C@H]1CC[C@H]2[C@@H]3CC=C4C[C@@H](O)CC[C@]4(C)[C@H]3CC[C@]12C", "note": "[22R-hydroxycholesterol]", "values": [{"measurement": "induction of alkaline phosphatase activity", "setting": "[1]", "result": "induced"}, {"measurement": "induction of mineralization by individual oxysterols", "setting": "[2]", "result": "unable to induce"}, {"measurement": "effect on troglitazone-induced adipogenesis", "setting": "[3]", "result": "inhibited adipogenesis"}]}
{"smiles": "CC(C)CC[C@H](O)[C@@H](C)[C@H]1CC[C@H]2[C@@H]3CC=C4C[C@@H](O)CC[C@]4(C)[C@H]3CC[C@]12C", "note": "[22S-hydroxycholesterol]", "values": [{"measurement": "induction of alkaline phosphatase activity", "setting": "[1]", "result": "induced"}, {"measurement": "induction of mineralization by individual oxysterols", "setting": "[2]", "result": "unable to induce"}, {"measurement": "effect on troglitazone-induced adipogenesis", "setting": "[3]", "result": "inhibited adipogenesis"}]}
